Source: publication PMC3616060, “Full Inhibition of Spinal FAAH Leads to TRPV1-Mediated Analgesic Effects in Neuropathic Rats and Possible Lipoxygenase-Mediated Remodeling of Anandamide Metabolism” (PLoS ONE, 2013)

Key:
[1] = target: T1, transient receptor potential vanilloid-1 (TRPV1) (Rattus norvegicus, UniProt O35433); experiment: intracellular Ca2+ (Fluo-4) assay in HEK-293 cells expressing rat TRPV1; assay type: cell-based
T1 construct: rat recombinant TRPV1 stably expressed in HEK-293 cells
T1 sequence (O35433 whole entry): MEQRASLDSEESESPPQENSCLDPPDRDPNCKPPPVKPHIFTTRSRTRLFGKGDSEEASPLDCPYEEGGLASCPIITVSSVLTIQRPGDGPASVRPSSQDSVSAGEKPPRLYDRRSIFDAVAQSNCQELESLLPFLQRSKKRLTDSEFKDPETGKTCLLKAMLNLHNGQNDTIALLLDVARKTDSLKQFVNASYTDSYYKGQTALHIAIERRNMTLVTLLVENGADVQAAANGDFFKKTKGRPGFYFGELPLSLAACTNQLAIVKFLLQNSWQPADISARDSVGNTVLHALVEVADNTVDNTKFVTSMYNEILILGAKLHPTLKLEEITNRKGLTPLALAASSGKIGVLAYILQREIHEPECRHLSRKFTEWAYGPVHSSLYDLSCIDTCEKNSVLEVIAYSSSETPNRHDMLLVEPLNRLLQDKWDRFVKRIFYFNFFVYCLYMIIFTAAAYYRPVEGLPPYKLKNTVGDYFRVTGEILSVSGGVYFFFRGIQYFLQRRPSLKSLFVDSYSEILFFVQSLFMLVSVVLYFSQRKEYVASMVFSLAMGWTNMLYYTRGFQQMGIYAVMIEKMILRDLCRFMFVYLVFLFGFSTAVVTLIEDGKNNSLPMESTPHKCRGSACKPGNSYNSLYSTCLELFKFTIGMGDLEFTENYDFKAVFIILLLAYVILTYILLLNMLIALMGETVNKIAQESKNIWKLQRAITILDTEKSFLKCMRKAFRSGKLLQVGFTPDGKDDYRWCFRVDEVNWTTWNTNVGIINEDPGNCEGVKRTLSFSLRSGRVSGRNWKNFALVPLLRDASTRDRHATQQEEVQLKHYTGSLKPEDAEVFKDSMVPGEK

[2] = target: T1, transient receptor potential vanilloid-1 (TRPV1); experiment: intracellular Ca2+ (Fluo-4) assay in HEK-293 cells expressing rat TRPV1; much lower effect, if any, in wild-type cells or after I-RTX; assay type: cell-based

Row | Compound | EC50 [1] [µM] | EC50 [2] [µM]
1 | CCCCC/C=C\C/C=C\C/C=C\C/C=C\CCCC(=O)NCCO [AEA, anandamide] | 0.24 ± 0.03 | –
2 | CCCCC[C@H](O)/C=C/C=C\C/C=C\C/C=C\CCCC(=O)NCCO [15S-HAEA, 15(S)-hydroxy-AEA] | – | 11.3 ± 0.9
